Source: patent EP0603240B1, “SAFENING HERBICIDAL PYRAZOLYLSULFONYLUREAS” (priority 1991, dated 1993)

How the values were obtained:
Type in all cases: in vivo
[1] = tested on: barnyardgrass (Echinochloa crusgalli); assay: Example 7, Procedure II: Herbicide No. 1 + metolachlor (No. 12) with antidotes
Method: (§1) Containers were filled and compacted with a fumigated silt loam top soil to a depth of about 1.3 cm from the top of the container. A first container was designated as an untreated control, a second container was designated as a herbicide control, and a third container was designated as a herbicide + antidote test container. Each of the containers was seeded with a crop species. A measured amount of herbicide dispersed or dissolved in acetone was applied to a measured quantity of soil. To this same quantity of soil treated with herbicide, there was added a measured amount of antidote dispersed or dissolved in acetone. The quantity of soil treated with the herbicide and antidote was thoroughly mixed to incorporate the herbicide and antidote in the soil uniformly. The seed bed in the third container of soil was covered with the soil treated with the herbicide and antidote and the container was leveled. For each test series, the seed beds of the first and second containers were likewise covered by soil layers. the cover layer of the first container was not treated with herbicide or antidote.
(§2) The containers were then placed on a bench in a greenhouse and sub-irrigated as required for the duration of the test. […] Plant response is measured in terms of percent injury. Antidote efficacy is indicated as the difference in plant injury by the herbicide(s) without the antidote and with the antidote.
(§3) This procedure is the same as Procedure I, but modified in the manner that after incorporation of the chemicals (herbicide and antidote) the containers with the covered seedbed were treated with an initial overhead irrigation equivalent to 0.6 cm rainfall, then subsequently sub-irrigated as required on greenhouse benches.
(§4) In the series of greenhouse tests described below, for routine screening purposes the herbicide/antidote compositions were tested in crop/weed combinations involving corn as the crop and either or both of the weeds barnyardgrass (Echinochloa crusgalli), a monocotyledonous weed, and velvetleaf (Abutilon theophrasti), a dicotyledonous weed. In the tables below, these weeds are indicated by the symbols "BYG" and "VL", respectively.
(§5) In this example, Procedure II described above was followed. The data from the tests in this example is shown in Table 6 and represents averages of duplicate replications.
(§6) The tests in this example followed the same procedure and antidotes used in Example 6. However, Herbicide No. 12 (metolachlor) was used as the co-herbicide with Herbicide No. 1.

[2] = tested on: velvetleaf (Abutilon theophrasti); assay: as above
Method: as §1, §2, §3, §4, §5, §6

[3] = tested on: barnyardgrass (Echinochloa crusgalli); assay: Example 10, Procedure II: Herbicide No. 1 + propachlor (No. 5) with antidotes; conditions: no antidote
Method: as §1, §2, §3, §4
(§7) In this test, the safening effect of various antidotes on the herbicidal combination of Herbicide No. 1 and another α-chloroacetanilide co-herbicide, propachlor, (Herbicide No. 5) was investigated. Propachlor is the active ingredient in the commercial herbicide RAMROD®. Procedure II was also used in this test as in the preceding example.

[4] = tested on: velvetleaf (Abutilon theophrasti); assay: as above; conditions: no antidote
Method: as §1, §2, §3, §4, §7

[5] = tested on: barnyardgrass (Echinochloa crusgalli); assay: Example 11, Procedure II: Herbicide No. 1 + metazachlor (No. 14) with antidotes; conditions: no antidote
Method: as §1, §2, §3, §4
(§8) In this example, yet another α-chloroacetanilide co-herbicide, metazachlor (Herbicide No. 14) was combined with Herbicide No. 1 for investigation of the effect of various safeners on that composition. Metazachlor is the active ingredient in the commercial herbicide BUTISAN® S, used here as a 500 g/L formulation.

[6] = tested on: velvetleaf (Abutilon theophrasti); assay: as above; conditions: no antidote
Method: as §1, §2, §3, §4, §8

corn = assay: Example 8, Procedure II: Herbicide No. 1 + butachlor (No. 9) with antidotes
Method: as §1, §2, §3
In this test, the efficacy of the same five antidotes used in Examples 6 and 7 was investigated in compositions comprising Herbicide No. 1 and as a co-herbicide, butachlor (Herbicide No. 9), active ingredient in MACHETE® herbicide, a leading commercial rice herbicide. The test procedure used in this example was the same as that in Examples 6 and 7.

[7] = tested on: barnyardgrass (Echinochloa crusgalli); assay: Example 18, Procedure II: Herbicide No. 1 + ERADICANE (EPTC + R-25788) with auxiliary antidotes
Method: as §1, §2, §3, §4
(§9) In the test reported in this example, the herbicidal composition was similar to that used in Example 16 in that Herbicide No. 1 was combined with EPTC (Herbicide No. 4) as a co-herbicide and the antidotes included Nos. 1, 2, 7, 13 and 15. However, in this test the EPTC was introduced as a formulation of ERADICANE (EPTC + the antidote R-25788, i.e., Antidote No. 1) at an application rate of 8.96 kg/ha. Thus, in this test two antidotes were present, viz. R-25788 and one of the auxilliary antidotes, No. 2, 13 and 15.
(§10) Test procedures were those of Procedure II above.

[8] = tested on: velvetleaf (Abutilon theophrasti); assay: as above
Method: as §1, §2, §3, §4, §9, §10

[9] = tested on: barnyardgrass (Echinochloa crusgalli); assay: Example 19, Procedure II: Herbicide No. 1 + ERADICANE EXTRA with added antidotes
Method: as §1, §2, §3, §4, §9
(§11) The test reported in this example was performed in the same manner and with the same antidotes used in Example 18, the only difference being the substitution of the commercial herbicidal product ERADICANE® EXTRA for ERADICANE®. ERADICANE EXTRA is a formulation containing both an antidote, i.e., R-29148 (Antidote No. 5 herein), and an extender, dietholate.

[10] = tested on: velvetleaf (Abutilon theophrasti); assay: as above
Method: as §1, §2, §3, §4, §9, §11

[11] = Herbicide No.1 0.14 + No.12 3.36 kg/ha, no antidote
[12] = Herbicide No.1 0.14 + No.12 3.36 kg/ha, no antidote (second such line, r25)
[13] = Herbicide No.1 0.56 + No.12 3.36 kg/ha, no antidote (second such line, r24)
[14] = Herbicide No.1 0.56 + No.12 (metolachlor) 3.36 kg/ha, no antidote
[15] = Herbicide No.1 0.14 kg/ha alone
[16] = Herbicide No.1 0.56 kg/ha alone
[17] = Herbicide No.1 1.12 kg/ha alone
[18] = Herbicide No.1 0.56 kg/ha + ERADICANE 8.96 kg/ha, no added antidote
[19] = Herbicide No.1 1.12 kg/ha + ERADICANE 8.96 kg/ha, no added antidote
[20] = Herbicide No.1 0.56 kg/ha + ERADICANE EXTRA 8.96 kg/ha, no added antidote
[21] = Herbicide No.1 1.12 kg/ha + ERADICANE EXTRA 8.96 kg/ha, no added antidote

COC(=O)c1c(Cl)nn(C)c1S(=O)(=O)NC(=O)Nc1nc(OC)cc(OC)n1 [Herbicide No. 1]
% Injury BYG [1, 11]: 100%
% Injury BYG [1, 12]: 35%
% Injury BYG [1, 13]: 75%
% Injury BYG [1, 14]: 100%
% Injury VL [2, 11]: 70%
% Injury VL [2, 12]: 60%
% Injury VL [2, 13]: 75%
% Injury VL [2, 14]: 85%
% Injury BYG [3, 15]: 75%
% Injury BYG [3, 16]: 80%
% Injury VL [4, 15]: 70%
% Injury VL [4, 16]: 75%
% Injury BYG [5, 16]: 75%
% Injury BYG [5, 17]: 80%
% Injury VL [6, 16]: 75%
% Injury VL [6, 17]: 80%
% Injury Corn (corn; Herbicide No.1 0.14 + No.9 2.24 kg/ha, no antidote): 25%
% Injury Corn (corn; [15]): 10%
% Injury Corn (corn; Herbicide No.1 0.56 + No.9 (butachlor) 2.24 kg/ha, no antidote): 65%
% Injury Corn (corn; [16]): 60%

CC1(C)OC(c2ccco2)CN1C(=O)C(Cl)Cl (stereo not shown) [Antidote No. 15, Oxazolidine, 3-(dichloroacetyl)-5-(2-furanyl)-2,2-dimethyl]
safening of corn, assessment in words (corn; Herbicide Nos. 1 and 9, Table 8): best safening effect across all four treatments

COC(=O)c1c(Cl)nn(C)c1S(=O)(=O)NC(=O)Nc1nc(OC)cc(OC)n1 [No.1]
% Injury BYG [7, 18]: 90%
% Injury BYG [7, 16]: 30%
% Injury BYG [7, 19]: 85%
% Injury BYG [7, 17]: 55%
% Injury VL [8, 18]: 80%
% Injury VL [8, 16]: 45%
% Injury VL [8, 19]: 75%
% Injury VL [8, 17]: 55%
% Injury BYG [9, 20]: 95%
% Injury BYG [9, 16]: 30%
% Injury BYG [9, 21]: 95%
% Injury BYG [9, 17]: 70%
% Injury VL [10, 20]: 80%
% Injury VL [10, 16]: 50%
% Injury VL [10, 21]: 85%
% Injury VL [10, 17]: 65%
